In the NIST ThermoML archive (doi:10.1021/je0501585):
± gives the expanded uncertainty stated by the source.

Assay: xn = mol fraction of the nth substance listed
Conditions: 101 kPa, Liquid; for viscosity: Capillary tube (Ostwald / Ubbelohde) method; for excess molar volume: Direct dilatometry; for speed of sound: Linear variable-path acoustic interferometer

Cc1ccc(C)cc1 [1,4-dimethylbenzene] + CCCCCCCCCC
Conditions | excess molar volume, 303.15 K [m3/mol] | excess molar volume, 308.15 K [m3/mol] | excess molar volume, 313.15 K [m3/mol] | speed of sound, 303.15 K [m/s] | speed of sound, 308.15 K [m/s] | speed of sound, 313.15 K [m/s] | viscosity, 303.15 K [mPa·s] | viscosity, 308.15 K [mPa·s] | viscosity, 313.15 K [mPa·s]
x1 = 0.1533 | 2.83e-07 ± 1.2e-08 | 4.89e-07 ± 1.1e-08 | 6.99e-07 ± 7e-09 | 1215.1 ± 5.3 | 1192.3 ± 5.2 | 1176.9 ± 5.2 | 0.729 ± 0.02 | 0.678 ± 0.018 | 0.66 ± 0.018
x1 = 0.2952 | 4.35e-07 ± 1.2e-08 | 6.8e-07 ± 1.2e-08 | 9.11e-07 ± 1e-08 | 1220 ± 5.3 | 1197.6 ± 5.2 | 1182 ± 5.2 | 0.68 ± 0.019 | 0.639 ± 0.018 | 0.623 ± 0.017
x1 = 0.4189 | 5.14e-07 ± 1.2e-08 | 7.6e-07 ± 1.1e-08 | 9.8e-07 ± 1.1e-08 | 1225.5 ± 5.3 | 1203.1 ± 5.2 | 1187.7 ± 5.2 | 0.646 ± 0.018 | 0.609 ± 0.017 | 0.59 ± 0.016
x1 = 0.4949 | 5.29e-07 ± 1.2e-08 | 7.59e-07 ± 1.1e-08 | 9.81e-07 ± 1.1e-08 | 1230 ± 5.3 | 1207.3 ± 5.2 | 1192 ± 5.2 | 0.628 ± 0.017 | 0.592 ± 0.016 | 0.573 ± 0.016
x1 = 0.6001 | 4.9e-07 ± 1.1e-08 | 7.03e-07 ± 1.1e-08 | 9.41e-07 ± 1.1e-08 | 1237.9 ± 5.3 | 1214.1 ± 5.2 | 1198.8 ± 5.2 | 0.605 ± 0.017 | 0.572 ± 0.016 | 0.552 ± 0.015
x1 = 0.6938 | 4.26e-07 ± 1.1e-08 | 6.32e-07 ± 1.1e-08 | 8.76e-07 ± 1.1e-08 | 1246.6 ± 5.3 | 1221.6 ± 5.2 | 1205.6 ± 5.2 | 0.588 ± 0.016 | 0.557 ± 0.016 | 0.538 ± 0.015
x1 = 0.7777 | 3.54e-07 ± 1e-08 | 5.56e-07 ± 1.1e-08 | 7.71e-07 ± 1.1e-08 | 1255.4 ± 5.3 | 1229 ± 5.2 | 1212.5 ± 5.2 | 0.576 ± 0.016 | 0.546 ± 0.015 | 0.527 ± 0.015
x1 = 0.8604 | 2.73e-07 ± 1e-08 | 4.55e-07 ± 1e-08 | 6.47e-07 ± 9e-09 | 1265.3 ± 5.3 | 1238.4 ± 5.3 | 1221.3 ± 5.2 | 0.568 ± 0.016 | 0.539 ± 0.015 | 0.519 ± 0.015
x1 = 0.9332 | 1.72e-07 ± 9e-09 | 3.03e-07 ± 8e-09 | 4.4e-07 ± 7e-09 | 1274.4 ± 5.3 | 1251 ± 5.2 | 1232.8 ± 5.2 | 0.566 ± 0.016 | 0.537 ± 0.015 | 0.515 ± 0.015
x1 = 1 | 0 ± 6e-09 | 0 ± 6e-09 | 0 ± 6e-09 | 1283.7 ± 5.2 | 1271 ± 5.2 | 1260 ± 5.2 | 0.566 ± 0.016 | 0.537 ± 0.015 | 0.513 ± 0.015
